The values below come from ChEMBL document CHEMBL4706723, “Novel N-Heteroaryl Indazole Derivatives as LRRK2 Inhibitors for Treating Parkinson's Disease” (ACS Med Chem Lett, 2021).

By IC50 is commonly meant the concentration at which inhibition is half-maximal.

The structures appear in SMILES notation. Bounds are passed on as bounds.

In this assay the target is Leucine-rich repeat serine/threonine-protein kinase 2 (Homo sapiens, UniProt Q5S007, G2019S). As to the kind of experiment: Inhibition of recombinant human GST tagged LRRK2 G2019S mutant catalytic domain (970 to 2527 residues) expressed in baculovirus expression system using fluorescein-labeled LRRKtide as substrate preincubated for 15 mins followed by substrate addition and measured after 90 mins by TR-FRET based Lanthascreen assay. In general terms: In TR-FRET formats the signal depends on donor and acceptor labels being close together.
Leucine-rich repeat serine/threonine-protein kinase 2, sequence (Q5S007 whole entry G2019S, the tested form may be a part): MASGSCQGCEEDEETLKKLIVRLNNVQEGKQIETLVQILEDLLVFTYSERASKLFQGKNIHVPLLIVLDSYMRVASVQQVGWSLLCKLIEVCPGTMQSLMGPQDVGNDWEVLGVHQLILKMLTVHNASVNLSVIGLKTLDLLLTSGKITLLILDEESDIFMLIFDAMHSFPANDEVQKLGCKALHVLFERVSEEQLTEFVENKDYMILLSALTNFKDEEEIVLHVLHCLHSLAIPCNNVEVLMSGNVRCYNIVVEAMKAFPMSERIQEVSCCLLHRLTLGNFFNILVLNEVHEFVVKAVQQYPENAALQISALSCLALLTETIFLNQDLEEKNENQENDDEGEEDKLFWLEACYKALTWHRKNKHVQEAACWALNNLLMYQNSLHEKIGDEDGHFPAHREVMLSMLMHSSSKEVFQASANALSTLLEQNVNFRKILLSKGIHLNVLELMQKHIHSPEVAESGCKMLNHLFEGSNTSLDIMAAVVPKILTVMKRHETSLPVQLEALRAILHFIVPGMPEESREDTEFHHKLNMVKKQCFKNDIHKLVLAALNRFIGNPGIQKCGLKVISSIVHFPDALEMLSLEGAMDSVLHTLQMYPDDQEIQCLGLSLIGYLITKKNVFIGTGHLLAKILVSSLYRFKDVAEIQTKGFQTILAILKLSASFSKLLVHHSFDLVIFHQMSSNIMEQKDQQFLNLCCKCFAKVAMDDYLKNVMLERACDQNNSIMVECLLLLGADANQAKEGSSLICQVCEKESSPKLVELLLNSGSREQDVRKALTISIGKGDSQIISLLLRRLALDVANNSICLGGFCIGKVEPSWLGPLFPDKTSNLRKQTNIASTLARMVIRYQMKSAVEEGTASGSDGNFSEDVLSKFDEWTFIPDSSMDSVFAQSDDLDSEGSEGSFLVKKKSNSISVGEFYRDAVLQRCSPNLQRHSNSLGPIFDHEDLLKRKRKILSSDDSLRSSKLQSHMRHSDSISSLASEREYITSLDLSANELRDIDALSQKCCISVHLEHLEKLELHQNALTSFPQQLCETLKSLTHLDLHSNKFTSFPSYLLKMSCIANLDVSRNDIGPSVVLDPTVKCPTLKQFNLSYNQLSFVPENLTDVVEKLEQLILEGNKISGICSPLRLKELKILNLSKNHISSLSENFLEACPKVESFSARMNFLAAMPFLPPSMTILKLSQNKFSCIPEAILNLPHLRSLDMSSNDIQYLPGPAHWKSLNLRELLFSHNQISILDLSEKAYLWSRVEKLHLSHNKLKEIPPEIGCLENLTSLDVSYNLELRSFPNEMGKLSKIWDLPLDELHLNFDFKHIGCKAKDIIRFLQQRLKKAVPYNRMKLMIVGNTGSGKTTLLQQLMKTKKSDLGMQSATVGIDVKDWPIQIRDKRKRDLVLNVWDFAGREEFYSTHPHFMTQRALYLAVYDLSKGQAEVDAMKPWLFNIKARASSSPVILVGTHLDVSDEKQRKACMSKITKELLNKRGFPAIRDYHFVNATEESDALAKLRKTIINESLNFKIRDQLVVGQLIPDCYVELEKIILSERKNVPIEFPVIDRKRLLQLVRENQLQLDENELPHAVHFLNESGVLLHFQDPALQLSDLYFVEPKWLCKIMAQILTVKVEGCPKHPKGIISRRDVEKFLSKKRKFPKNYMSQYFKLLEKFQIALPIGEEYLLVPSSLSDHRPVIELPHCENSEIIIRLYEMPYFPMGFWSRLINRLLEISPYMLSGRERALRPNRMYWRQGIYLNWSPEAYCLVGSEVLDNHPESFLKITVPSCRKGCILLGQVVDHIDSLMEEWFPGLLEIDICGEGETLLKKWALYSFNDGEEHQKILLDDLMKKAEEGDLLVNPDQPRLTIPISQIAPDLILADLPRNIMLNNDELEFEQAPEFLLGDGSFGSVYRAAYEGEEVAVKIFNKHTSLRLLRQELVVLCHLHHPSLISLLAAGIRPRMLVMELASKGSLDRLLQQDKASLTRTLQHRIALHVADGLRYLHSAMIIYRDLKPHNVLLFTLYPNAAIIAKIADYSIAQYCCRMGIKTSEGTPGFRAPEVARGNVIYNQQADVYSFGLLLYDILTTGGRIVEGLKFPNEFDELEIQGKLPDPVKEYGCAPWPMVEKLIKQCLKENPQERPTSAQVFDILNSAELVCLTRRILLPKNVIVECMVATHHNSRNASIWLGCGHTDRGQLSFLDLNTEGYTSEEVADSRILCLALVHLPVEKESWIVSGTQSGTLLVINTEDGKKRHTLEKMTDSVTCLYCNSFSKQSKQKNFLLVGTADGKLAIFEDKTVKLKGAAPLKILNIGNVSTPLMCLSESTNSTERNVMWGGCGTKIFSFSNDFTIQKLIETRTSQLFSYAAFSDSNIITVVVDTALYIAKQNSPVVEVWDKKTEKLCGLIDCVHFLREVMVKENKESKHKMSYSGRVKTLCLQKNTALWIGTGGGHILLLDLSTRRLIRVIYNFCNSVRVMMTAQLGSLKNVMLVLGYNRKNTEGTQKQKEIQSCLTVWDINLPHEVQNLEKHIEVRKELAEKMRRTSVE
Take `Cn1cc(-n2ncc3cc(Cl)c(C4CCN(C5(C)CCOC5)CC4)cc32)cn1` (stereo not drawn): the IC50 was under 625 pM.

On to `CC1(N2CCC(c3cc4c(cnn4-c4cnn(C56CC(C#N)(C5)C6)c4)cc3Cl)CC2)COC1`, for which the IC50 is under 625 pM.

Take `CC1(N2CCC(c3cc4c(cnn4-c4cnn(C56CC(C5)C6)c4)cc3Cl)CC2)COC1`: the IC50 was 710 pM.
